The text below walks through data of patent US11780830B2, “Triazolone derivatives or salts thereof and pharmaceutical compositions comprising the same” (YUHAN CORPORATION, priority 2018, dated 2023).

In general, IC50 refers to the concentration that gives 50% inhibition.

Holding throughout (assay type): biochemical
One experiment deals with T1, recombinant human VAP-1 (Homo sapiens, UniProt Q16853).
T1 construct: purchased R&D systems
T1 sequence (Q16853 1-763): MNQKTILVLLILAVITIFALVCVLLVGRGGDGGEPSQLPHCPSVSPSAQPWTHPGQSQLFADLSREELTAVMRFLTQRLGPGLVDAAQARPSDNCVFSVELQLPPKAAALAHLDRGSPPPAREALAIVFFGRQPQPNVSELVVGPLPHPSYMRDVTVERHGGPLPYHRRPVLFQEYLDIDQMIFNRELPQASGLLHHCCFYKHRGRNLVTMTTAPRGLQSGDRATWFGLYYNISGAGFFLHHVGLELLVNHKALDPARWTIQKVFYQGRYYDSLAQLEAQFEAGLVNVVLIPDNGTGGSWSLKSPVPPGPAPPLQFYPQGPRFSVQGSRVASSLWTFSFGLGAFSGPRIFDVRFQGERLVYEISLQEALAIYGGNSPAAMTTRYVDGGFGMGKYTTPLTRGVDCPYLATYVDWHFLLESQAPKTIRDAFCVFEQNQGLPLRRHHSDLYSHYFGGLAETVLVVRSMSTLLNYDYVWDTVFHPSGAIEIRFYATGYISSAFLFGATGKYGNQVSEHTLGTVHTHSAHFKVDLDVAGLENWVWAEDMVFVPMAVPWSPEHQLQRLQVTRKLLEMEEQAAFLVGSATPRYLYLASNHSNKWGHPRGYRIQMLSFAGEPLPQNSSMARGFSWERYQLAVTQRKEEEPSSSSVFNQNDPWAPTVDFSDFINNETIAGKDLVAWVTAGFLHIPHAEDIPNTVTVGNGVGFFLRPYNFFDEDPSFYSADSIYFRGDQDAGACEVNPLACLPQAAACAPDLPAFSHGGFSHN
Briefly: Activity on recombinant human VAP-1, HRP-coupled Amplex Red hydrogen peroxide assay. Particulars: substrate 1 mM benzylamine; compound incubated with enzyme at 37° C. for 30 minutes; pH 7.4; read-out: Inhibitory Activity (IC50, nM) human VAP-1. The gist of the method: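 Dose-response IC50 determined from reduction in resorufin signal rate (544/590 nm, 1-2 h), with 30 min compound preincubation at 37 °C and 1 mM benzylamine as substrate.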

In experiment [1] the target is T2, recombinant human MAO-B (monoamine oxidase-B) (Homo sapiens, UniProt P27338).
T2 construct: purchased Sigma-Aldrich
T2 sequence (P27338 1-520): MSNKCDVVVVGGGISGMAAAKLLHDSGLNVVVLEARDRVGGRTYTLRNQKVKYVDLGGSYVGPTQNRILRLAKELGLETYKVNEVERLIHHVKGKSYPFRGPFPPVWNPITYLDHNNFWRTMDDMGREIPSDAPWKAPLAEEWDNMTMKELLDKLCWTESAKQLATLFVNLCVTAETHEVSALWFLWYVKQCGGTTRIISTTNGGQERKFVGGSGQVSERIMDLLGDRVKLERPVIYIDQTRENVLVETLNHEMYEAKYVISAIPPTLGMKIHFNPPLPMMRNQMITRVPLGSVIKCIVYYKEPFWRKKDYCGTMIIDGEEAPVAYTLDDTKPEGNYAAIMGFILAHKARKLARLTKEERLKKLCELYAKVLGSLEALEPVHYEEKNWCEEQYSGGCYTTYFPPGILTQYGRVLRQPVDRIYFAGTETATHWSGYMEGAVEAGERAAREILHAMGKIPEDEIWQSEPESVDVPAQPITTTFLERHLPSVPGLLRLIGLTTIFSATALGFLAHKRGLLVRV
Briefly: Activity on recombinant human MAO-B, method similar to the VAP-1 assay. Particulars: substrate 1 mM benzylamine; read-out: Inhibitory Activity (IC50, nM) MAO-B. In outline:
(§1)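 Amplex Red/HRP coupled read-out of H2O2 with 0.5 mM tyramine for MAO-A or 1 mM benzylamine for MAO-B, following a 30-min compound–enzyme preincubation at 37° C. IC50 from percent inhibition of signal rate relative to uninhibited control.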

For experiment [2], the target named is T3, recombinant human DAO (diamine oxidase) (Homo sapiens, UniProt P19801).
T3 construct: purchased R&D systems
T3 sequence (P19801 20-751): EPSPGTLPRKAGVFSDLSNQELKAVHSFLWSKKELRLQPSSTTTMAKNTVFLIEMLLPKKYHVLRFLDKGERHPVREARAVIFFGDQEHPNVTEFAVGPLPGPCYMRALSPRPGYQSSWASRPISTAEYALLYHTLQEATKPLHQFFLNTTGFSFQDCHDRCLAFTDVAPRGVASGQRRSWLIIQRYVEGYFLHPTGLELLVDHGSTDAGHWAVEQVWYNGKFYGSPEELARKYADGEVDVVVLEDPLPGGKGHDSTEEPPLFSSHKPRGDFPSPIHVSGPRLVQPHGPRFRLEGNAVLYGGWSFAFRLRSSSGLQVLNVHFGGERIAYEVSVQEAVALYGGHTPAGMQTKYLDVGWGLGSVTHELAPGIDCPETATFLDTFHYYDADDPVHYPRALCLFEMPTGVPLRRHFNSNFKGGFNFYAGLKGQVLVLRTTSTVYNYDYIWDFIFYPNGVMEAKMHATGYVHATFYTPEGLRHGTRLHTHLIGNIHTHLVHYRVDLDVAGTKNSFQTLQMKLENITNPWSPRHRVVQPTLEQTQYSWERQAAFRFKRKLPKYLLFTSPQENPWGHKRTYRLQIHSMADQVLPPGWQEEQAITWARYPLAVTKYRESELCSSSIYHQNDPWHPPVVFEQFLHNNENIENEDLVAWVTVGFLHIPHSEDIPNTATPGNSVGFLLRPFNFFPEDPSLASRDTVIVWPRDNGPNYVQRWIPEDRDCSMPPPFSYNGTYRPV
Put plainly: Activity on recombinant human DAO, method similar to the VAP-1 assay. Particulars: substrate 1 mM putrescine; read-out: Inhibitory Activity (IC50, nM) DAO. In outline: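 Inhibition of recombinant human diamine oxidase (DAO, R&D systems) was assessed by the same approach as the VAP-1 assay, using 1 mM putrescine as substrate. Hydrogen peroxide formed was detected through an HRP-coupled Amplex Red reaction yielding fluorescent resorufin, read at 544 nm excitation and 590 nm emission. IC50 values came from four-parameter logistic fitting in GraphPad Prism.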

Experiment [3] deals with T4, recombinant human MAO-A (monoamine oxidase-A) (Homo sapiens, UniProt P21397).
T4 construct: purchased Sigma-Aldrich
T4 sequence (P21397 1-527): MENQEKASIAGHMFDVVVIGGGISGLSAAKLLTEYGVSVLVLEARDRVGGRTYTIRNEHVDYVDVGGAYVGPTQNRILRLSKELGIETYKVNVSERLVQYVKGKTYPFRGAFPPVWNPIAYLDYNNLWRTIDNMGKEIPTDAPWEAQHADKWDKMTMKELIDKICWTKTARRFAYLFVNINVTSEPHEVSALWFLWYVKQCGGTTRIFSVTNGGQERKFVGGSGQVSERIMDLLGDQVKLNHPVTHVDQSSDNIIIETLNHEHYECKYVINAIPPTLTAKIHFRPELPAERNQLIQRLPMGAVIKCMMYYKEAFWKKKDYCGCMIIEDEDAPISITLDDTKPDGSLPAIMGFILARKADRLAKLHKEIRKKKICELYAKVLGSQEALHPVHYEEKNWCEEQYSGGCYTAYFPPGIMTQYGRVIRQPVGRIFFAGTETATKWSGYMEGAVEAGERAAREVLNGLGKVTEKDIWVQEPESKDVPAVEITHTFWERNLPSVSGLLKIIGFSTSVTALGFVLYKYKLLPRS
Briefly: Activity on recombinant human MAO-A, method similar to the VAP-1 assay. The settings on record: substrate 0.5 mM tyramine; read-out: Inhibitory Activity (IC50, nM) MAO-A. In outline: as §1

Structures can show the parent of a compound that is named as a salt.

As for `Cc1cscc1-c1ccc(Cn2cnn(C/C(=C/F)CN)c2=O)s1` [Example 165, 2-[(2E)-2-(aminomethyl)-3-fluoroprop-2-en-1-yl]-4-[(4′-methyl-2,3′-bithiophen-5-yl)methyl]-2,4-dihydro-3H-1,2,4-triazol-3-one], the IC50 is 7.5 nM at recombinant human VAP-1, 2.8 nM in experiment [1], 5300 nM in experiment [2] and above 100000 nM in experiment [3].

With `CN(C)S(=O)(=O)c1ccc(-c2ccc(Cn3cnn(C/C(=C/F)CN)c3=O)s2)cc1` [Example 9, 4-[5-(1-[(2E)-2-(aminomethyl)-3-fluoroprop-2-en-1-yl]-5-oxo-1,5-dihydro-4H-1,2,4-triazol-4-ylmethyl)thiophen-2-yl]-N,N-dimethylbenzenesulfonamide hydrochloride], the IC50 was 1.5 nM at recombinant human VAP-1, 1600 nM in experiment [1], 170 nM in experiment [2] and above 100000 nM in experiment [3].
